Results taken from patent publication US12492186B2, “Bicyclic heterocyclic compounds useful as IRAK4 inhibitors” (BRISTOL-MYERS SQUIBB COMPANY, priority 2019, dated 2025).

What was measured:
[1] = biological target: IRAK4 (Homo sapiens (Human), UniProt Q9NWZ3); assay: IRAK4 Inhibition Assay; assay type: biochemical; settings: ATP 500 μM; IRAK4 0.6 nM; 60 min room temperature; Caliper LABCHIP 3000
[2] = tested on: Human whole blood; assay: IRAK4 Whole Blood Assay (IL-6 levels after stimulation with TLR2 agonist lipoteichoic acid); assay type: cell-based; settings: 10 μg/mL lipoteichoic acid, 5 hours
Description: Human whole blood containing the anti-coagulant ACD-A was plated in 384-well plate (25 μL/well) and incubated with compounds for 60 minutes at 37° C. in a 5% CO2 incubator. The blood was stimulated with a TLR2 agonist, 10 μg/mL final concentration of lipoteichoic acid (Invivogen, San Diego, CA) in 25 μL RPMI (Gibco) for 5 hours in a 5% CO2 incubator. At the end of the incubation, plates were centrifuged at 2300 rpm for 5 minutes. Supernatants were harvested and analyzed for IL-6 levels by Flow Cytometry beads assay (BD Biosciences, San Jose, CA).

Chain of IRAK4 (Q9NWZ3 whole entry, species assumed): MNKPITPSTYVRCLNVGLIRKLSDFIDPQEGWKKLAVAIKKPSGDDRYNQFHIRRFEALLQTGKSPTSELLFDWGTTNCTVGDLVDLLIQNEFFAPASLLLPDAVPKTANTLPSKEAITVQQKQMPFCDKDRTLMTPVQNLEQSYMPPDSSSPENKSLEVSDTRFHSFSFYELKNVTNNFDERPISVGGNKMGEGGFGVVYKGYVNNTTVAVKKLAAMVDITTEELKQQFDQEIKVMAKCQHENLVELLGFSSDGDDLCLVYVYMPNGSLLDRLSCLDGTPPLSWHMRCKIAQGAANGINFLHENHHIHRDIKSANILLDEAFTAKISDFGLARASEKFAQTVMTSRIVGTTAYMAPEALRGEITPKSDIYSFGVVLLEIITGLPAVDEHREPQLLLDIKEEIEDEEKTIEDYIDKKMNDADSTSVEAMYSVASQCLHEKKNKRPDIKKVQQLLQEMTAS

IC50 [1]	EC50 [2]	Compound
17.1 nM	1170 nM	CC(C)Nc1c(C(=O)NC2CCN(S(=O)(=O)c3cccnc3)CC2)cnc2ccc(-c3cn[nH]c3)cc12 [Example 84, 4-(isopropylamino)-6-(1H-pyrazol-4-yl)-N-(1-(pyridin-3-ylsulfonyl)piperidin-4-yl)quinoline-3-carboxamide]
9.7 nM	1190 nM	CC(C)Nc1c(C(=O)NCCN2CCOCC2)cnc2ccc(-c3cn[nH]c3)cc12 [Example 44, 4-(isopropylamino)-N-(2-morpholinoethyl)-6-(1H-pyrazol-4-yl)quinoline-3-carboxamide]
9.1 nM	350 nM	CC(C)Nc1c(C(=O)NCCC(F)F)cnc2ccc(-c3cn[nH]c3)cc12 [Example 45, N-(3,3-difluoropropyl)-4-(isopropylamino)-6-(1H-pyrazol-4-yl)quinoline-3-carboxamide]
11.4 nM	5090 nM	CC(C)Nc1c(-c2cn(C3CCN(C)C3=O)nn2)cnc2ccc(-c3cn[nH]c3)cc12 (stereo not shown) [Example 136, 3-(4-(4-(isopropylamino)-6-(1H-pyrazol-4-yl)quinolin-3-yl)-1H-1,2,3-triazol-1-yl)-1-methylpyrrolidin-2-one]
12.3 nM	1690 nM	CC(C)Nc1c(C(=O)NC2CCN(Cc3ccc(F)cc3)CC2)cnc2ccc(-c3cn[nH]c3)cc12 [Example 76, N-(1-(4-fluorobenzyl)piperidin-4-yl)-4-(isopropylamino)-6-(1H-pyrazol-4-yl)quinoline-3-carboxamide]
6.3 nM	981 nM	CC(C)Nc1c(-c2cn(C3CN(CC(F)F)C3)nn2)cnc2ccc(-c3cn[nH]c3)cc12 [Example 134, 3-(1-(1-(2,2-difluoroethyl)azetidin-3-yl)-1H-1,2,3-triazol-4-yl)-N-isopropyl-6-(1H-pyrazol-4-yl)quinolin-4-amine]
5.8 nM	1630 nM	CC(C)Nc1c(C(=O)NCCCc2csc(N)n2)cnc2ccc(-c3cn[nH]c3)cc12 [Example 113, N-(3-(2-aminothiazol-4-yl)propyl)-4-(isopropylamino)-6-(1H-pyrazol-4-yl)quinoline-3-carboxamide]
16 nM	4740 nM	Cc1cc2ncc(C(=O)NCCC(C)(C)O)c(NC(C)C)c2cc1-c1cn[nH]c1 [Example 59, N-(3-hydroxy-3-methylbutyl)-4-(isopropylamino)-7-methyl-6-(1H-pyrazol-4-yl)quinoline-3-carboxamide]
7.7 nM	584 nM	CC(=O)N[C@H]1CC[C@H](NC(=O)c2cnc3ccc(-c4cn[nH]c4)cc3c2NC(C)C)CC1 [Example 24, N-((1r,4r)-4-acetamidocyclohexyl)-4-(isopropylamino)-6-(1H-pyrazol-4-yl)quinoline-3-carboxamide]
4.4 nM	2370 nM	CC(C)Nc1c(C(=O)NCCc2ccncc2)cnc2ccc(-c3cn[nH]c3)cc12 [Example 109, 4-(isopropylamino)-6-(1H-pyrazol-4-yl)-N-(2-(pyridin-4-yl)ethyl)quinoline-3-carboxamide]
4.4 nM	1100 nM	O=C(NCCc1cccnc1)c1cnc2ccc(-c3cn[nH]c3)cc2c1NC1CC1 [Example 115, 4-(cyclopropylamino)-6-(1H-pyrazol-4-yl)-N-(2-(pyridin-3-yl)ethyl)quinoline-3-carboxamide]
9.1 nM	1740 nM	CC(C)Nc1c(C(=O)NCCCc2ccncc2)cnc2ccc(-c3cn[nH]c3)cc12 [Example 114, 4-(isopropylamino)-6-(1H-pyrazol-4-yl)-N-(3-(pyridin-4-yl)propyl)quinoline-3-carboxamide]
7.5 nM	6450 nM	CC(C)Nc1c(C(=O)NCc2nnc[nH]2)cnc2ccc(-c3cn[nH]c3)cc12 [Example 22, N-((4H-1,2,4-triazol-3-yl)methyl)-4-(isopropylamino)-6-(1H-pyrazol-4-yl)quinoline-3-carboxamide]
2.9 nM	779 nM	CC(C)Nc1c(-c2cn(C3CCNCC3)nn2)cnc2ccc(-c3cn[nH]c3)cc12 [Example 133, N-isopropyl-3-(1-(piperidin-4-yl)-1H-1,2,3-triazol-4-yl)-6-(1H-pyrazol-4-yl)quinolin-4-amine]
6.7 nM	1170 nM	CC(=O)N1CCC(c2cc(-c3cnc4ccc(-c5cn[nH]c5)cc4c3NC(C)C)on2)CC1 [Example 127, 1-(4-(5-(4-(isopropylamino)-6-(1H-pyrazol-4-yl)quinolin-3-yl)isoxazol-3-yl)piperidin-1-yl)ethan-1-one]
14.6 nM	549 nM	CC(C)Nc1c(C(=O)NCCC(F)(F)F)cnc2ccc(-c3cn[nH]c3)cc12 [Example 43, 4-(isopropylamino)-6-(1H-pyrazol-4-yl)-N-(3,3,3-trifluoropropyl)quinoline-3-carboxamide]

IC50 [1]	EC50 [2]	Compound
4.7 nM	556 nM	CC(C)Nc1c(C(=O)NCC2CCS(=O)(=O)C2)nnc2ccc(-c3cn[nH]c3)cc12 (stereo not shown) [Example 159, N-((1,1-dioxidotetrahydrothiophen-3-yl)methyl)-4-(isopropylamino)-6-(1H-pyrazol-4-yl)cinnoline-3-carboxamide]
11.4 nM	1280 nM	CC(C)Nc1c(C(=O)NCCC2CCCN2)cnc2ccc(-c3cn[nH]c3)cc12 (stereo not shown) [Example 96, 4-(isopropylamino)-6-(1H-pyrazol-4-yl)-N-(2-(pyrrolidin-2-yl)ethyl)quinoline-3-carboxamide]
9.5 nM	2240 nM	CC(C)Nc1c(C(=O)NCCN2CCS(=O)(=O)CC2)cnc2ccc(-c3cn[nH]c3)cc12 [Example 94, N-(2-(1,1-dioxidothiomorpholino)ethyl)-4-(isopropylamino)-6-(1H-pyrazol-4-yl) quinoline-3-carboxamide]
9.9 nM	788 nM	CC(=O)N1CCC(NC(=O)c2cnc3ccc(-c4cn[nH]c4)cc3c2NC(C)C)CC1 [Example 77, N-(1-acetylpiperidin-4-yl)-4-(isopropylamino)-6-(1H-pyrazol-4-yl)quinoline-3-carboxamide]
6.8 nM	458 nM	CC(C)Nc1c(C(=O)NCC2CCS(=O)(=O)C2)cnc2ccc(-c3cn[nH]c3)cc12 (stereo not shown) [Example 87, N-((1,1-dioxidotetrahydrothiophen-3-yl)methyl)-4-(isopropylamino)-6-(1H-pyrazol-4-yl)quinoline-3-carboxamide]
1.4 nM	40 nM	CC(C)Nc1c(C(=O)NC[C@@H](F)C(C)(C)O)cnc2ccc(-c3cn[nH]c3)nc12 [Example 141, (R)—N-(2-fluoro-3-hydroxy-3-methylbutyl)-4-(isopropylamino)-6-(1H-pyrazol-4-yl)-1,5-naphthyridine-3-carboxamide]
15 nM	2260 nM	CCOCCNC(=O)c1cnc2ccc(-c3cn[nH]c3)cc2c1NC(C)C [Example 10, N-(2-ethoxyethyl)-4-(isopropylamino)-6-(1H-pyrazol-4-yl)quinoline-3-carboxamide]
5.7 nM	618 nM	CC(C)Nc1c(C(=O)NC2CCN(S(C)(=O)=O)CC2)cnc2ccc(-c3cn[nH]c3)cc12 [Example 79, 4-(isopropylamino)-N-(1-(methylsulfonyl)piperidin-4-yl)-6-(1H-pyrazol-4-yl) quinoline-3-carboxamide]
3.3 nM	502 nM	CC(=O)N[C@H]1CC[C@H](NC(=O)c2cnc3ccc(-c4cn[nH]c4)nc3c2NC(C)C)CC1 [Example 155, N-((1r,4r)-4-acetamidocyclohexyl)-4-(isopropylamino)-6-(1H-pyrazol-4-yl)-1,5-naphthyridine-3-carboxamide]
12.3 nM	1460 nM	COC(=O)N[C@H]1CC[C@H](NC(=O)c2cnc3ccc(-c4cn[nH]c4)cc3c2NC(C)C)C1 [Example 26, methyl ((1S,3S)-3-(4-(isopropylamino)-6-(1H-pyrazol-4-yl)quinoline-3-carboxamido)cyclopentyl) carbamate]
8.9 nM	2820 nM	CCNc1c(C(=O)NC[C@@H](F)C(C)(C)O)cnc2ccc(-c3cn[nH]c3)cc12 [Example 27, (R)-4-(ethylamino)-N-(2-fluoro-3-hydroxy-3-methylbutyl)-6-(1H-pyrazol-4-yl)quinoline-3-carboxamide]
1.2 nM	1430 nM	CC(C)CCn1cc(-c2cnc3ccc(-c4cn[nH]c4)cc3c2NC(C)C)nn1 [Example 129, 3-(1-isopentyl-1H-1,2,3-triazol-4-yl)-N-isopropyl-6-(1H-pyrazol-4-yl)quinolin-4-amine]
8 nM	936 nM	CC(C)Nc1c(C(=O)NCCC(C)(C)O)cnc2ccc(-c3cn[nH]c3)cc12 [Example 17, N-(3-hydroxy-3-methylbutyl)-4-(isopropylamino)-6-(1H-pyrazol-4-yl)quinoline-3-carboxamide]
3.3 nM	1280 nM	COC(=O)N[C@H]1CC[C@H](NC(=O)c2cnc3ccc(-c4cn[nH]c4)cc3c2NC(C)C)CC1 [Example 25, methyl ((1r,4r)-4-(4-(isopropylamino)-6-(1H-pyrazol-4-yl)quinoline-3-carboxamido)cyclohexyl)carbamate]
4 nM	285 nM	CC(C)Nc1c(C(=O)NCCN2CCOCC2)cnc2ccc(-c3cn[nH]c3)nc12 [Example 144, 4-(isopropylamino)-N-(2-morpholinoethyl)-6-(1H-pyrazol-4-yl)-1,5-naphthyridine-3-carboxamide]
9.8 nM	544 nM	CC(C)(O)[C@H](F)CNC(=O)c1cnc2ccc(-c3cn[nH]c3)cc2c1NC1COC1 [Example 34, (R)—N-(2-fluoro-3-hydroxy-3-methylbutyl)-4-(oxetan-3-ylamino)-6-(1H-pyrazol-4-yl)quinoline-3-carboxamide]
